Test results reported in patent US20260041704A1, “COMPOSITIONS AND METHODS FOR TREATING SICKLE CELL DISEASE” (Beren Therapeutics P.B.C., priority 2022, published 2026).

Tests used:
Type in all cases: cell-based, human
[1] = system: RBCs from sickle cell disease patients (SS); assay: Red blood cell deformability by ektacytometry (LORRCA), RBCs from sickle cell patients
Source text: (§1) Subjects and blood preparation: 17 sickle cell patients (24.1 +/-12.1 years old) and 6 healthy individuals (26 +/−3.9 years old) were included in this study. 12 sickle cell patients were at steady state at the time of inclusion and 5 had vaso-occlusive crisis the day of inclusion. 14 patients were under hydroxyurea therapy. Blood was drawn into EDTA tubes, centrifuged, and plasma and buffy coat were removed and kept until utilization. RBCs were washed in PBS 1X (Phosphate Buffered Saline, 1X Solution) and resuspended at hematocrit 20% either in PBS 1X or in autologous plasma. Then RBCs were incubated for 1 h at 37° C, with 3 or 5 mM 2-HPBCD or vehicle for control condition (Ctrl). The vehicle for control condition was the PBS IX or plasma respectively, i.e., without addition of the 2-HPBCD.
Red blood cell deformability: RBC deformability was assessed at 37° C, at shear stresses ranging from 0.3 to 30 Pa by laser diffraction analysis (ektacytometry), using a Laser-assisted Optical Rotational Cell Analyzer (LORRCA MaxSis, RR Mechatronics. Hoorn. The Netherlands). 10 μL of RBC suspensions were mixed with 1 ml polyvinylpyrrolidone (PVP: viscosit≈30 cP) and sheared into a Couette system. A laser beam was directed through the samples. The shear stress-induced deformation of RBCs affected the laser beam's diffraction pattern, which was measured by the LORRCA software, and used to calculate an elongation index. A higher elongation index represents greater RBC deformability. The Lineweaver-Burke method was used to calculate the maximum elongation index at infinite shear stress (EImax) and the shear stress required to reach half of this maximum elongation index (SS1/2).
Statistical analysis: effects of treatments on deformability parameters (EImax and SS1/2) and free hemoglobin concentration were analyzed by using a paired t-test or Wilcoxon test when appropriate. Comparisons of RBC deformability between healthy individuals and patients were achieved using Student's t-test. A p value<0.05 was considered as significant. Analyses were performed with Graphpad Prism 9 software.

[2] = system: RBCs from sickle cell disease patients (SS); assay: Free hemoglobin assay (Drabkin's reagent) in supernatants, RBCs from sickle cell patients; conditions: 1 h incubation
[3] = system: RBCs from healthy individuals (AA); assay: Red blood cell deformability by ektacytometry (LORRCA), RBCs from healthy individuals; conditions: 5 mM 2-HPBCD, 1 h at 37° C, RBCs from healthy controls (AA) in PBS
Source text: as §1, with “The vehicle for control condition was the PBS IX or plasma respectively, i.e., without addition of the 2-HPBCD.” left out
Red blood cell deformability: RBC deformability was assessed at 37° C, at shear stresses ranging from 0.3 to 30 Pa by laser diffraction analysis (ektacytometry), using a Laser-assisted Optical Rotational Cell Analyzer (LORRCA MaxSis, RR Mechatronics. Hoorn. The Netherlands). […] The shear stress-induced deformation of RBCs affected the laser beam's diffraction pattern, which was measured by the LORRCA software, and used to calculate an elongation index. […]
Statistical analysis: effects of treatments on deformability parameters (EImax and SS1/2) and free hemoglobin concentration were analyzed by using a paired t-test or Wilcoxon test when appropriate. […]

[4] = system: RBCs from healthy individuals (AA); assay: Free hemoglobin assay (Drabkin's reagent) in supernatants, RBCs from healthy individuals; conditions: 5 mM 2-HPBCD, 1 h incubation, RBCs from healthy control individuals (AA) in PBS, FIG. 4

Which results are given for `CC(O)COC[C@H]1O[C@@H]2O[C@H]3[C@H](O)[C@@H](O)[C@@H](O[C@H]4[C@H](O)[C@@H](O)[C@@H](O[C@H]5[C@H](O)[C@@H](O)[C@@H](O[C@H]6[C@H](O)[C@@H](O)[C@@H](O[C@H]7[C@H](O)[C@@H](O)[C@@H](O[C@H]8[C@H](O)[C@@H](O)[C@@H](O[C@H]1[C@H](O)[C@H]2O)O[C@@H]8COCC(C)O)O[C@@H]7COCC(C)O)O[C@@H]6COCC(C)O)O[C@@H]5COCC(C)O)O[C@@H]4COCC(C)O)O[C@@H]3COCC(C)O` (stereo partly drawn) [2-HPBCD, 2-hydroxypropyl-β-cyclodextrin]?
effect on deformability of SCD RBCs ([1]; 3 mM or 5 mM 2-HPBCD): increased deformability; change of sickle cell RBCs EImax vs control ([1]; 5 mM 2-HPBCD, 1 h at 37° C, incubated in PBS, p<0.01, FIG. 2A): +12.7%; change of sickle cell RBC SS1/2 vs control ([1]; 5 mM 2-HPBCD, 1 h at 37° C, incubated in PBS, p<0.5 as printed, FIG. 2B): −8.1%; effect on SS1/2 in sickle cell RBCs ([1]; 5 mM 2-HPBCD, 1 h at 37° C, incubated in plasma, FIG. 2D): did not significantly change; change of sickle cell RBC EImax vs control ([1]; 5 mM 2-HPBCD, 1 h at 37° C, incubated in plasma, p<0.01, FIG. 2C): +12.4%; effect on free hemoglobin released by RBCs ([2]; 3 mM 2-HPBCD, RBCs from sickle cell disease patients in PBS, p<0.05, FIG. 6A): significantly decreased; change of free hemoglobin released by RBCs vs control ([2]; 5 mM 2-HPBCD, RBCs from sickle cell anemia patients in PBS, p<0.05, FIG. 5A): −6.4%; change of free hemoglobin released by RBCs vs control, patients with low basal free hemoglobin removed ([2]; 5 mM 2-HPBCD, SS RBCs with high basal free hemoglobin content in PBS, p<0.01, FIG. 5B): −29.9%; effect on SS1/2 (printed SSin) ([3]; FIG. 1B): no significant effect; change of RBC EImax vs control ([3]; p<0.05, FIG. 1A): +4.4%; effect on free hemoglobin release in the supernatant [4]: no significant effect
